The results in this text go back to US20240092790A1, “DIHYDROFUROPYRIDINE DERIVATIVES AS RHO- KINASE INHIBITORS” (CHIESI FARMACEUTICI S.P.A., priority 2020, published 2024).

Format in all cases: biochemical
One experiment concerns the target ROCK1 (Homo sapiens, UniProt Q13464). Kind of experiment: In vitro inhibitory activity assay ROCK1 (ADP-Glo). The settings on record: ATP 200 μM, Cheng-Prusoff; read-out: ROCK 1 (Ki, range of activity). On the procedure: (§1) In Vitro Inhibitory Activity Assay Description ROCK1 and ROCK2
(§2) The effectiveness of compounds of the present invention to inhibit Rho kinase activity can be determined in a 10 μl assay containing 40 mM Tris pH7.5, 20 mM MgCl2 0.1 mg/mL BSA, 50 μM DTT and 2.5 μM peptide substrate (Myelin Basic Protein) using an ADP-Glo kit (Promega). Compounds were dissolved in DMSO such that the final concentration of DMSO was 1% in the assay. All reactions/incubations are performed at 25° C. Compound (2 ul) and either Rho kinase 1 or 2 (4 μl) were mixed and incubated for 30 mins. Reactions were initiated by addition of ATP (4 μl) such that the final concentration of ATP in the assay was 200 μM. After a 1 hour incubation 10 μl of ADP-Glo Reagent was added and after a further 1 hour incubation 20 ul of Kinase Detection Buffer was added and the mixture incubated for a further 45 minutes. The luminescent signal was measured on a luminometer. […] Compounds were tested in dose-response format and the inhibition of kinase activity was calculated at each concentration of compound. To determine the IC50 (concentration of compound required to inhibit 50% of the enzyme activity) data were fit to a plot of % inhibition vs Log 10 compound concentration using a sigmoidal fit with a variable slope and fixing the maximum to 100% and the minimum to 0%. To determine the Ki values the Cheng-Prusoff equation was utilized (Ki=IC50/(1+[S]/Km).
Background: ADP-Glo first removes unused ATP, then detects ADP through luciferase.

In the next experiment the target is ROCK2 (Homo sapiens, UniProt O75116). The experiment can be described thus: In vitro inhibitory activity assay ROCK2 (ADP-Glo). Conditions: ATP 200 μM, Cheng-Prusoff; read-out: ROCK2 (Ki, range of activity). The protocol:
as §1, §2

The next experiment concerns the target PKA (Homo sapiens, UniProt P17612). Kind of experiment: In vitro inhibitory activity assay for PKA (ADP-Glo), reported as selectivity ratio vs ROCK2. Conditions: Ki value for PKA divided by Ki value of ROCK2. On the procedure: In Vitro Inhibitory Activity Assay Description for PKA
The effectiveness of compounds of the present invention to inhibit PKA activity can be determined in a 10 μl assay containing 40 mM Tris pH7.5, 20 mM MgCl2 0.1 mg/ml BSA, 50 μM DTT and 260 μM peptide substrate (kemptide) using an ADP-Glo kit (Promega). Compounds were dissolved in DMSO such that the final concentration of DMSO was 1% in the assay. All reactions/incubations are performed at 25° C. Compound and PKA enzyme (6 μl) were mixed and incubated for 30 mins. Reactions were initiated by addition of ATP (4 μl) such that the final concentration of ATP in the assay was 10 μM. After a 30 minute incubation 10p of ADP-Glo Reagent was added and after a further 1 hour incubation 20 μl of Kinase Detection Buffer was added and the mixture incubated for a further 45 minutes. The luminescent signal was measured on a luminometer. […] Compounds were tested in dose-response format and the inhibition of kinase activity was calculated at each concentration of compound. To determine the IC50 (concentration of compound required to inhibit 50% of the enzyme activity) data were fit to a plot of % inhibition vs Log10 compound concentration using a sigmoidal fit with a variable slope and fixing the maximum to 100% and the minimum to 0%. To determine the Ki values the Cheng-Prusoff equation was utilized (Ki=IC50/(1+[S]/Km).
In vitro inhibitory activities for PKA were reported as selectivity ratio vs. ROCK-2.

Chain of ROCK1 (Q13464 whole entry): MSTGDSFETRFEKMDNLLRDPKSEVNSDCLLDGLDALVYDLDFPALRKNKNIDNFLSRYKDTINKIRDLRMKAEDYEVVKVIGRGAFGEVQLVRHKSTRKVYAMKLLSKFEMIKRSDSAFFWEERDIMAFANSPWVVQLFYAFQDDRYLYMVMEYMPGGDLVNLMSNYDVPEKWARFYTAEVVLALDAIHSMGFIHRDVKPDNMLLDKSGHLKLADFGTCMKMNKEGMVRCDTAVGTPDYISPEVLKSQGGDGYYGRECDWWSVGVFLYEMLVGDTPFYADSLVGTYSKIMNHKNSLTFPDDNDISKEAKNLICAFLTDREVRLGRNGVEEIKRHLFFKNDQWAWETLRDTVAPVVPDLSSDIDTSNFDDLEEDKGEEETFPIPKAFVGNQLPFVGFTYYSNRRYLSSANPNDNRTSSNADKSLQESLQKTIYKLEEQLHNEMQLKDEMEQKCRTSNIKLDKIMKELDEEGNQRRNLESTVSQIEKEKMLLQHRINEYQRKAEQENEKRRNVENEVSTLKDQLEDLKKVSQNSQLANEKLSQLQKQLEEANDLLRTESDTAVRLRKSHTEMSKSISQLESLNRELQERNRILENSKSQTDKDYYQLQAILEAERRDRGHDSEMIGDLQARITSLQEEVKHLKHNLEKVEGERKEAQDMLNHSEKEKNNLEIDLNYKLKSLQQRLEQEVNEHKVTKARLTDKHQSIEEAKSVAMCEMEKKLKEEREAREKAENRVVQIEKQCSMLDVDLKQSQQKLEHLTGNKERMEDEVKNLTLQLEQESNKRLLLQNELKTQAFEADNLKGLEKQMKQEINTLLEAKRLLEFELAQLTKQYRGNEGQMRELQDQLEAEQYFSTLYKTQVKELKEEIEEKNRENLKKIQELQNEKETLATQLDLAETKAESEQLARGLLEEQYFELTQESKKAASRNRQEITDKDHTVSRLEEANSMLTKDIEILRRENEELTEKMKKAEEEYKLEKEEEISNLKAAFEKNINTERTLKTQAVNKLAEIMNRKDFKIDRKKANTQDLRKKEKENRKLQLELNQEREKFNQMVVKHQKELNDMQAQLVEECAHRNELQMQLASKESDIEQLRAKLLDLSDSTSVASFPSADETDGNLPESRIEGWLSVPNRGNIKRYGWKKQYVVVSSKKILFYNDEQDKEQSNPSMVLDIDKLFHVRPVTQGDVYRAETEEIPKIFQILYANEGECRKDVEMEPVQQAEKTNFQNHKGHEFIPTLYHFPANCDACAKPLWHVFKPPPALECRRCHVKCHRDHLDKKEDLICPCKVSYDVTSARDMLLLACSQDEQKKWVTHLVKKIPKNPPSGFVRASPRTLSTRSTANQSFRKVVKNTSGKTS
Chain of ROCK2 (O75116 whole entry): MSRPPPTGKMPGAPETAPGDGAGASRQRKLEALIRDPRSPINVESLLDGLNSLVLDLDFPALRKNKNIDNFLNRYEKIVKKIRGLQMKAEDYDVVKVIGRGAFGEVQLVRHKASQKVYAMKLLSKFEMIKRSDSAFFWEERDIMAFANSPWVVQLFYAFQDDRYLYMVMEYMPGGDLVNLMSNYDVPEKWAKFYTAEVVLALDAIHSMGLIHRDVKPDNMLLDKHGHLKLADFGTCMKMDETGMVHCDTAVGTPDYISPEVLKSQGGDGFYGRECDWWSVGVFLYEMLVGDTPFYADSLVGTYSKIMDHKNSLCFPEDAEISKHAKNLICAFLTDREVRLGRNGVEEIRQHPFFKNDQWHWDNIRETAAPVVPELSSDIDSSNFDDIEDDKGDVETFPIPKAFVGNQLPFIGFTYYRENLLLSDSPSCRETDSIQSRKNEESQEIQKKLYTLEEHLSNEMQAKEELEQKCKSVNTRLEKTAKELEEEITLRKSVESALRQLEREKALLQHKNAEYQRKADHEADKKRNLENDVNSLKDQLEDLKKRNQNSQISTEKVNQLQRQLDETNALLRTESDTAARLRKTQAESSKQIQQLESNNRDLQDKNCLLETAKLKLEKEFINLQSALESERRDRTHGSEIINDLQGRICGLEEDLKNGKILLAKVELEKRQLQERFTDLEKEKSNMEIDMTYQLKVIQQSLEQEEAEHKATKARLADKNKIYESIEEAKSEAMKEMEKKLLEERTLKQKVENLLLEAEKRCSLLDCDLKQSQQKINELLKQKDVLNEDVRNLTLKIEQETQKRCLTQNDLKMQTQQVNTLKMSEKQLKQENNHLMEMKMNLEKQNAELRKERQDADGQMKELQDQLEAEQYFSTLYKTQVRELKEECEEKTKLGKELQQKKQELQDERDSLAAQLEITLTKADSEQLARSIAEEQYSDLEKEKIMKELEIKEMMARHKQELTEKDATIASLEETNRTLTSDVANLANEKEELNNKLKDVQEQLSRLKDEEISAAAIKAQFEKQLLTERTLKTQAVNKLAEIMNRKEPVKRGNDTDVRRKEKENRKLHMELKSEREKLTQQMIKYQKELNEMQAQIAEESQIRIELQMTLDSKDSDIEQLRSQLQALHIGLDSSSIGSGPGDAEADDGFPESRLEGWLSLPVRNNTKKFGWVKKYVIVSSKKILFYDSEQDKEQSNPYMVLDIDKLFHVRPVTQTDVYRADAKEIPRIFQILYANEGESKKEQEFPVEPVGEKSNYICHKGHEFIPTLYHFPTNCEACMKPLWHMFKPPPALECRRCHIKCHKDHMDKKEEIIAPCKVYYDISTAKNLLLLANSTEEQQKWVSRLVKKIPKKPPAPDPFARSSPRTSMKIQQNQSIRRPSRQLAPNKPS

Take `COCC1(CNC(=O)c2cccc(CNc3ncc(-c4ccnc(N)n4)c4c3CCO4)c2)CC1` [Example 28, 3-(((7-(2-Aminopyrimidin-4-yl)-2,3-dihydrofuro[3,2-c]pyridin-4-yl)amino)methyl)-N-((1-(methoxymethyl)cyclopropyl)methyl)benzamide]: the figures for the Ki at ROCK1 and at ROCK2 were 3 to 30 nM and not above 3 nM, respectively. Moreover, the “Ratio (PKA/ROCK2)” value on PKA is recorded as “*** (ratio≥10)”.
Consider `Nc1nccc(-c2cnc(NCc3cccc(C(=O)NCC(F)(F)F)c3)c3c2OCC3)n1` [Example 12, 3-(((7-(2-Aminopyrimidin-4-yl)-2,3-dihydrofuro[3,2-c]pyridin-4-yl)amino)methyl)-N-(2,2,2-trifluoroethyl)benzamide], for which the inhibition constant (Ki) is 3 to 30 nM at ROCK1 and not above 3 nM at ROCK2. Further, at PKA, the “Ratio (PKA/ROCK2)” value is on record as “*** (ratio≥10)”.
The matching figures for `Nc1nccc(-c2cnc(NCc3cccc(C(=O)NC4CC4F)c3)c3c2OCC3)n1` (single isomer, unassigned) [Example 46, Trans 3-(((7-(2-Aminopyrimidin-4-yl)-2,3-dihydrofuro[3,2-c]pyridin-4-yl)amino)methyl)-N-(2-fluorocyclopropyl)benzamide]: not above 3 nM, not above 3 nM and “*** (ratio≥10)”.
The like results for `Nc1nccc(-c2cnc(NCc3cccc(C(=O)N[C@H]4C[C@@H](OC(F)F)C4)c3)c3c2OCC3)n1` [Example 26, 3-(((7-(2-aminopyrimidin-4-yl)-2,3-dihydrofuro[3,2-c]pyridin-4-yl)amino)methyl)-N-((1s,3s)-3-(difluoromethoxy)cyclobutyl)benzamide] were, in that order, not above 3 nM, not above 3 nM and “*** (ratio≥10)”.
Turning to `CC(C)(F)CNC(=O)c1cccc(CNc2ncc(-c3ccnc(N)n3)c3c2CCO3)c1` [Example 31, 3-(((7-(2-Aminopyrimidin-4-yl)-2,3-dihydrofuro[3,2-c]pyridin-4-yl)amino)methyl)-N-(2-fluoro-2-methylpropyl)benzamide], the inhibition constant (Ki) on ROCK1 and on ROCK2 was not above 3 nM each time. Moreover, at PKA, the “Ratio (PKA/ROCK2)” value was “*** (ratio≥10)”.
For `Nc1nccc(-c2cnc(NCc3cccc(C(=O)NCC4CCO4)c3)c3c2OCC3)n1` (stereo not drawn) [Example 38, 3-(((7-(2-Aminopyrimidin-4-yl)-2,3-dihydrofuro[3,2-c]pyridin-4-yl)amino)methyl)-N-(oxetan-2-ylmethyl)benzamide], the Ki on ROCK1 and on ROCK2 was not above 3 nM in each case. Further, on PKA, the “Ratio (PKA/ROCK2)” value is recorded as “*** (ratio≥10)”.
`CCCNC(=O)c1cccc(CNc2ncc(-c3ccnc(N)n3)c3c2CCO3)c1` [Example 40, 3-(((7-(2-Aminopyrimidin-4-yl)-2,3-dihydrofuro[3,2-c]pyridin-4-yl)amino)methyl)-N-propylbenzamide]: the inhibition constant Ki on ROCK1 and at ROCK2 was not above 3 nM in each case. In addition, on PKA, the “Ratio (PKA/ROCK2)” value is “*** (ratio≥10)”.
For `Nc1nccc(-c2cnc(NCc3ccc(F)c(C(=O)NC4CCOCC4)c3)c3c2OCC3)n1` [Example 58, 5-(((7-(2-Aminopyrimidin-4-yl)-2,3-dihydrofuro[3,2-c]pyridin-4-yl)amino)methyl)-2-fluoro-N-(tetrahydro-2H-pyran-4-yl)benzamide], the results for the Ki at ROCK1 and at ROCK2 were 3 to 30 nM and not above 3 nM, respectively. Moreover, the “Ratio (PKA/ROCK2)” value at PKA is recorded as “*** (ratio≥10)”.
The like results for `CC(F)(F)CNC(=O)c1cccc(CNc2ncc(-c3ccnc(N)n3)c3c2CCO3)c1` [Example 44, 3-(((7-(2-Aminopyrimidin-4-yl)-2,3-dihydrofuro[3,2-c]pyridin-4-yl)amino)methyl)-N-(2,2-difluoropropyl)benzamide] were, in that order, not above 3 nM, not above 3 nM and “*** (ratio≥10)”.
The matching figures for `COCCCNC(=O)c1cc(CNc2ncc(-c3ccnc(N)n3)c3c2CCO3)ccc1F` [Example 57, 5-(((7-(2-Aminopyrimidin-4-yl)-2,3-dihydrofuro[3,2-c]pyridin-4-yl)amino)methyl)-2-fluoro-N-(3-methoxypropyl)benzamide]: 3 to 30 nM, not above 3 nM and “*** (ratio≥10)”.
`Nc1nccc(-c2cnc(NCc3cccc(C(=O)NC4CCC4)c3)c3c2OCC3)n1` [Example 1, 3-(((7-(2-Aminopyrimidin-4-yl)-2,3-dihydrofuro[3,2-c]pyridin-4-yl)amino)methyl)-N-cyclobutylbenzamide]: the Ki on ROCK1 and at ROCK2 was not above 3 nM each time. Also, the “Ratio (PKA/ROCK2)” value on PKA is “** (5≤ratio<10)”.
As for `Nc1nccc(-c2cnc(NCc3cccc(C(=O)NCC4CC4)c3)c3c2OCC3)n1` [Example 25, 3-(((7-(2-Aminopyrimidin-4-yl)-2,3-dihydrofuro[3,2-c]pyridin-4-yl)amino)methyl)-N-(cyclopropylmethyl)benzamide], the Ki on ROCK1 and on ROCK2 was not above 3 nM each time. Besides, at PKA, the “Ratio (PKA/ROCK2)” value is “*** (ratio≥10)”.
As for `CC1(NC(=O)c2cccc(CNc3ncc(-c4ccnc(N)n4)c4c3CCO4)c2)CC1` [Example 22, 3-(((7-(2-Aminopyrimidin-4-yl)-2,3-dihydrofuro[3,2-c]pyridin-4-yl)amino)methyl)-N-(1-methylcyclopropyl)benzamide], the inhibition constant (Ki) at ROCK1 and at ROCK2 was 3 to 30 nM throughout. On PKA, the “Ratio (PKA/ROCK2)” value is “** (5≤ratio<10)”.
In the case of `COCCCNC(=O)c1ccc(F)c(CNc2ncc(-c3ccnc(N)n3)c3c2CCO3)c1` [Example 62, 3-(((7-(2-Aminopyrimidin-4-yl)-2,3-dihydrofuro[3,2-c]pyridin-4-yl)amino)methyl)-4-fluoro-N-(3-methoxypropyl)benzamide], the inhibition constant (Ki) on ROCK1 was more than 30 nM; at ROCK2, 3 to 30 nM. Moreover, on PKA, the “Ratio (PKA/ROCK2)” value is recorded as “*** (ratio≥10)”.
`Nc1nccc(-c2cnc(NCc3cccc(C(=O)NCCCOC(F)F)c3)c3c2OCC3)n1` [Example 14, 3-(((7-(2-Aminopyrimidin-4-yl)-2,3-dihydrofuro[3,2-c]pyridin-4-yl)amino)methyl)-N-(3-(difluoromethoxy)propyl)benzamide]: the inhibitory constant (Ki) on ROCK1 and on ROCK2 was not above 3 nM each time. Also, on PKA, the “Ratio (PKA/ROCK2)” value is “*** (ratio≥10)”.
Regarding `Nc1nccc(-c2cnc(NCc3cccc(C(=O)NC[C@@H]4CCCO4)c3)c3c2OCC3)n1` [Example 43, (S)-3-(((7-(2-Aminopyrimidin-4-yl)-2,3-dihydrofuro[3,2-c]pyridin-4-yl)amino)methyl)-N-((tetrahydrofuran-2-yl)methyl)benzamide], the Ki at ROCK1 and at ROCK2 was not above 3 nM throughout. Also, the “Ratio (PKA/ROCK2)” value at PKA is “*** (ratio≥10)”.
For the compound `Nc1nccc(-c2cnc(NCc3cccc(C(=O)NCC4CCOCC4)c3)c3c2OCC3)n1` [Example 2, 3-(((7-(2-Aminopyrimidin-4-yl)-2,3-dihydrofuro[3,2-c]pyridin-4-yl)amino)methyl)-N-((tetrahydro-2H-pyran-4-yl)methyl)benzamide], the inhibition constant (Ki) on ROCK1 and on ROCK2 was not above 3 nM throughout. In addition, the “Ratio (PKA/ROCK2)” value on PKA is recorded as “*** (ratio≥10)”.
With `COCCCNC(=O)c1cccc(CNc2ncc(-c3ccnc(N)n3)c3c2CCO3)c1` [Example 8, 3-(((7-(2-Aminopyrimidin-4-yl)-2,3-dihydrofuro[3,2-c]pyridin-4-yl)amino)methyl)-N-(3-methoxypropyl)benzamide], the inhibition constant (Ki) at ROCK1 and at ROCK2 was not above 3 nM each time. Besides, on PKA, the “Ratio (PKA/ROCK2)” value was “*** (ratio≥10)”.
For the compound `Nc1nccc(-c2cnc(NCc3cccc(C(=O)NC4CCOCC4)c3)c3c2OCC3)n1` [Example 7, 3-(((7-(2-Aminopyrimidin-4-yl)-2,3-dihydrofuro[3,2-c]pyridin-4-yl)amino)methyl)-N-(tetrahydro-2H-pyran-4-yl)benzamide], the Ki on ROCK1 and at ROCK2 was not above 3 nM throughout. In addition, the “Ratio (PKA/ROCK2)” value on PKA is “*** (ratio≥10)”.

One may read the Ki as the equilibrium dissociation constant of an inhibitor or competing ligand from its target.
